Reference: US11225505B2, “Antimicrobial polymyxin derivative compounds” (MONASH UNIVERSITY, priority 2015, dated 2022)
In brackets after ≈: the same amount, converted by molar mass. Where a SMILES comes first, the peptide text is derived from it. Bridges are numbered along the chain shown (N, C = ends). [ ]: non-standard residue; d: D form. The star is where a group is joined. X15 = O=C(c1ccc(Cl)nc1Cl)*; X1 = O=C(c1ncc(Cl)cc1Cl)*; Dab = NCC[C@H](N)C(=O)O; X3 = O=C(c1cncc(Cl)c1)*; Abu = CC[C@H](N)C(=O)O; Dap = NC[C@H](N)C(=O)O

Legend:
Type in all cases: cell-based
[1] = tested on: Acinetobacter baumannii ATCC 17978; details: ATCC 17978
Procedure: (§1) MICs of the lipopeptides (trifluoroacetic acid salt, TFA) were determined by broth microdilution in cation-adjusted Mueller-Hinton broth (CAMHB) (Oxoid Australia, Thebarton, SA, Australia) according to the Clinical and Laboratory Standards Institute protocol (Clinical and Laboratory Standards Institute, Performance standards for antimicrobial susceptibility testing; twentyforth informational supplement M100-S24. Wayne, Pa., 2014). Polymyxin B sulphate was employed as the control. Antimicrobial activity of Compounds 1-104 against polymyxin-susceptible Gram-negative bacteria was examined. The following isolates were examined: Pseudomonas aeruginosa ATCC 27853, Pseudomonas aeruginosa FADDI-PA022*, Pseudomonas aeruginosa FADDI-PA01*, Pseudomonas aeruginosa FADDI-PA038*, Acinetobacter baumannii FADDI-AB034*, Acinetobacter baumannii ATCC 17978, Acinetobacter baumannii FADDI-AB030*, Klebsiella pneumoniae FADDI-KP032, Klebsiella pneumoniae FADDI-KP022*, Klebsiella pneumoniae Kp BM1*, Enterobacter cloacae FADDI-EC006, Enterobacter cloacae FADDI-EC001, and Enterobacter cloacae FADDI-EC003 (* Multi drug-resistant clinical isolates, § New Delhi Metallo-beta-lactamase-1 (NDM-1) producing). The results are illustrated in Tables 4 and 5.

[2] = tested on: Acinetobacter baumannii FADDI-AB034; details: FADDI-AB034
Procedure: as §1

[3] = tested on: Enterobacter cloacae FADDI-EC001; details: FADDI-EC001
Procedure: as §1

[4] = tested on: Enterobacter cloacae FADDI-EC003; details: FADDI-EC003
Procedure: as §1

[5] = tested on: Enterobacter cloacae FADDI-EC006; details: FADDI-EC006
Procedure: as §1

[6] = tested on: Klebsiella pneumoniae FADDI-KP022; details: FADDI-KP022
Procedure: as §1

[7] = tested on: Klebsiella pneumoniae FADDI-KP032; details: FADDI-KP032
Procedure: as §1

[8] = tested on: Klebsiella pneumoniae Kp BM1; details: Kp BM1
Procedure: as §1

[9] = tested on: Pseudomonas aeruginosa ATCC 27853; details: ATCC 27853
Procedure: as §1

[10] = tested on: Pseudomonas aeruginosa FADDI-PA01; details: FADDI-
Procedure: as §1

[11] = tested on: Pseudomonas aeruginosa FADDI-PA022; details: FADDI-PA022
Procedure: as §1

[12] = tested on: Pseudomonas aeruginosa FADDI-PA038; details: FADDI-PA038
Procedure: as §1

[13] = tested on: Acinetobacter baumannii FADDI-AB030; assay: microbe, parasite or virus in culture; details: FADDI-AB030
Procedure: as §1, with “Antimicrobial activity of Compounds 1-104 against polymyxin-susceptible Gram-negative bacteria was examined.” left out, “5. […]” for “5.”

In the case of CC[C@@H]1NC(=O)[C@@H](CC(C)C)NC(=O)[C@H](CCN)NC(=O)[C@@H](NC(=O)[C@H](CN)NC(=O)[C@@H](NC(=O)[C@H](CCN)NC(=O)c2cncc(Cl)c2)[C@@H](C)O)CCNC(=O)[C@H]([C@@H](C)O)NC(=O)[C@H](CCN)NC(=O)[C@H](CCN)NC1=O [Compound 6] (X3-[Dab]T[Dap][Dab][Dab][dL][Abu][Dab][Dab]T; lactam 4-C), the Minimum inhibitory concentration [1] is reported as 2 µg/mL (≈ 1.78 µM), the Minimum inhibitory concentration [2] is reported as 2 µg/mL (≈ 1.78 µM) and the Minimum inhibitory concentration [3] is reported as 0.25 µg/mL (≈ 0.222 µM). For the same compound, the Minimum inhibitory concentration [4] was under 0.125 µg/mL, the Minimum inhibitory concentration [5] was 0.25 µg/mL (≈ 0.222 µM) and the Minimum inhibitory concentration [6] was under 0.125 µg/mL. It also gave a Minimum inhibitory concentration [7] of 0.25 µg/mL (≈ 0.222 µM), a Minimum inhibitory concentration [8] of 0.5 µg/mL (≈ 0.444 µM) and a Minimum inhibitory concentration [9] of 1 µg/mL (≈ 0.888 µM). For the same compound, the Minimum inhibitory concentration [10] was 0.5 µg/mL (≈ 0.444 µM), the Minimum inhibitory concentration [11] was 1 µg/mL (≈ 0.888 µM) and the Minimum inhibitory concentration [12] was 0.5 µg/mL (≈ 0.444 µM). For the same compound, the Minimum inhibitory concentration [13] was 1 µg/mL (≈ 0.888 µM).
CC[C@@H]1NC(=O)[C@@H](CC(C)C)NC(=O)[C@H](CCN)NC(=O)[C@@H](NC(=O)[C@H](CN)NC(=O)[C@@H](NC(=O)[C@H](CCN)NC(=O)c2ccc(Cl)nc2Cl)[C@@H](C)O)CCNC(=O)[C@H]([C@@H](C)O)NC(=O)[C@H](CCN)NC(=O)[C@H](CCN)NC1=O [Compound 7] (X15-[Dab]T[Dap][Dab][Dab][dL][Abu][Dab][Dab]T; lactam 4-C) showed a Minimum inhibitory concentration [1] of 1 µg/mL (≈ 0.861 µM), a Minimum inhibitory concentration [2] of 2 µg/mL (≈ 1.72 µM) and a Minimum inhibitory concentration [3] of under 0.125 µg/mL. The Minimum inhibitory concentration [4] was under 0.125 µg/mL, the Minimum inhibitory concentration [5] was 0.25 µg/mL (≈ 0.215 µM) and the Minimum inhibitory concentration [6] was under 0.125 µg/mL. For the same compound, the Minimum inhibitory concentration [7] was 1 µg/mL (≈ 0.861 µM), the Minimum inhibitory concentration [8] was 0.5 µg/mL (≈ 0.431 µM) and the Minimum inhibitory concentration [9] was 1 µg/mL (≈ 0.861 µM). It also gave a Minimum inhibitory concentration [10] of 0.25 µg/mL (≈ 0.215 µM), a Minimum inhibitory concentration [11] of 1 µg/mL (≈ 0.861 µM) and a Minimum inhibitory concentration [12] of 0.5 µg/mL (≈ 0.431 µM). For the same compound, the Minimum inhibitory concentration [13] was 0.5 µg/mL (≈ 0.431 µM).
CC(C)C[C@H]1NC(=O)[C@H](CCN)NC(=O)[C@@H](NC(=O)[C@H](CN)NC(=O)[C@@H](NC(=O)[C@H](CCN)NC(=O)c2ncc(Cl)cc2Cl)[C@@H](C)O)CCNC(=O)[C@H]([C@@H](C)O)NC(=O)[C@H](CCN)NC(=O)[C@H](CCN)NC(=O)[C@H]([C@@H](C)O)NC1=O [Compound 8] (X1-[Dab]T[Dap][Dab][Dab][dL]T[Dab][Dab]T; lactam 4-C) gave a Minimum inhibitory concentration [1] of 4 µg/mL (≈ 3.4 µM), a Minimum inhibitory concentration [2] of 4 µg/mL (≈ 3.4 µM) and a Minimum inhibitory concentration [3] of under 0.125 µg/mL. The Minimum inhibitory concentration [4] was 0.25 µg/mL (≈ 0.212 µM), the Minimum inhibitory concentration [5] was 0.25 µg/mL (≈ 0.212 µM) and the Minimum inhibitory concentration [6] was under 0.125 µg/mL. The Minimum inhibitory concentration [7] was 0.5 µg/mL (≈ 0.425 µM), the Minimum inhibitory concentration [8] was 0.5 µg/mL (≈ 0.425 µM) and the Minimum inhibitory concentration [9] was 0.25 µg/mL (≈ 0.212 µM). It also gave a Minimum inhibitory concentration [10] of 0.5 µg/mL (≈ 0.425 µM), a Minimum inhibitory concentration [11] of 0.5 µg/mL (≈ 0.425 µM) and a Minimum inhibitory concentration [12] of 0.5 µg/mL (≈ 0.425 µM). For the same compound, the Minimum inhibitory concentration [13] was 4 µg/mL (≈ 3.4 µM).
Compound C[C@@H]1NC(=O)[C@@H](Cc2ccccc2)NC(=O)[C@H](CCN)NC(=O)[C@@H](NC(=O)[C@H](CN)NC(=O)[C@@H](NC(=O)[C@H](CCN)NC(=O)c2ncc(Cl)cc2Cl)[C@@H](C)O)CCNC(=O)[C@H]([C@@H](C)O)NC(=O)[C@H](CCN)NC(=O)[C@H](CCN)NC1=O [Compound 9] (X1-[Dab]T[Dap][Dab][Dab][dF]A[Dab][Dab]T; lactam 4-C) has a Minimum inhibitory concentration [1] of 2 µg/mL (≈ 1.69 µM), a Minimum inhibitory concentration [2] of 2 µg/mL (≈ 1.69 µM) and a Minimum inhibitory concentration [3] of under 0.125 µg/mL. The Minimum inhibitory concentration [4] was under 0.125 µg/mL, the Minimum inhibitory concentration [5] was 1 µg/mL (≈ 0.847 µM) and the Minimum inhibitory concentration [6] was under 0.125 µg/mL. For the same compound, the Minimum inhibitory concentration [7] was 0.25 µg/mL (≈ 0.212 µM), the Minimum inhibitory concentration [8] was 0.25 µg/mL (≈ 0.212 µM) and the Minimum inhibitory concentration [9] was 0.25 µg/mL (≈ 0.212 µM). It also gave a Minimum inhibitory concentration [10] of 0.25 µg/mL (≈ 0.212 µM), a Minimum inhibitory concentration [11] of 0.25 µg/mL (≈ 0.212 µM) and a Minimum inhibitory concentration [12] of 0.5 µg/mL (≈ 0.423 µM). For the same compound, the Minimum inhibitory concentration [13] was 2 µg/mL (≈ 1.69 µM).
CC(C)C[C@H]1NC(=O)[C@H](CCN)NC(=O)[C@@H](NC(=O)[C@H](CN)NC(=O)[C@@H](NC(=O)[C@H](CCN)NC(=O)c2ncc(Cl)cc2Cl)[C@@H](C)O)CCNC(=O)[C@H]([C@@H](C)O)NC(=O)[C@H](CCN)NC(=O)[C@H](CCN)NC(=O)[C@H](C)NC1=O [Compound 10] (X1-[Dab]T[Dap][Dab][Dab][dL]A[Dab][Dab]T; lactam 4-C) showed a Minimum inhibitory concentration [1] of 4 µg/mL (≈ 3.49 µM), a Minimum inhibitory concentration [2] of 4 µg/mL (≈ 3.49 µM) and a Minimum inhibitory concentration [3] of 0.25 µg/mL (≈ 0.218 µM). It also gave a Minimum inhibitory concentration [4] of 0.25 µg/mL (≈ 0.218 µM), a Minimum inhibitory concentration [5] of 0.5 µg/mL (≈ 0.436 µM) and a Minimum inhibitory concentration [6] of 0.25 µg/mL (≈ 0.218 µM). It also gave a Minimum inhibitory concentration [7] of 0.5 µg/mL (≈ 0.436 µM), a Minimum inhibitory concentration [8] of 4 µg/mL (≈ 3.49 µM) and a Minimum inhibitory concentration [9] of 0.25 µg/mL (≈ 0.218 µM). It also gave a Minimum inhibitory concentration [10] of 0.5 µg/mL (≈ 0.436 µM), a Minimum inhibitory concentration [11] of 0.5 µg/mL (≈ 0.436 µM) and a Minimum inhibitory concentration [12] of 1 µg/mL (≈ 0.872 µM). The Minimum inhibitory concentration [13] was 8 µg/mL (≈ 6.97 µM).
C[C@@H](O)[C@@H]1NC(=O)[C@H](CCN)NC(=O)[C@H](CCN)NC(=O)[C@H]([C@@H](C)O)NC(=O)[C@@H](Cc2ccccc2)NC(=O)[C@H](CCN)NC(=O)[C@@H](NC(=O)[C@H](CN)NC(=O)[C@@H](NC(=O)[C@H](CCN)NC(=O)c2ncc(Cl)cc2Cl)[C@@H](C)O)CCNC1=O [Compound 11] (X1-[Dab]T[Dap][Dab][Dab][dF]T[Dab][Dab]T; lactam 4-C) gave a Minimum inhibitory concentration [1] of 1 µg/mL (≈ 0.826 µM), a Minimum inhibitory concentration [2] of 1 µg/mL (≈ 0.826 µM) and a Minimum inhibitory concentration [3] of under 0.125 µg/mL. It also gave a Minimum inhibitory concentration [4] of under 0.125 µg/mL, a Minimum inhibitory concentration [5] of under 0.125 µg/mL and a Minimum inhibitory concentration [6] of under 0.125 µg/mL. For the same compound, the Minimum inhibitory concentration [7] was under 0.125 µg/mL, the Minimum inhibitory concentration [8] was 1 µg/mL (≈ 0.826 µM) and the Minimum inhibitory concentration [9] was 0.25 µg/mL (≈ 0.206 µM). For the same compound, the Minimum inhibitory concentration [10] was 0.5 µg/mL (≈ 0.413 µM), the Minimum inhibitory concentration [11] was 0.25 µg/mL (≈ 0.206 µM) and the Minimum inhibitory concentration [12] was 1 µg/mL (≈ 0.826 µM). It also gave a Minimum inhibitory concentration [13] of 2 µg/mL (≈ 1.65 µM).
Compound CC(C)C[C@H]1NC(=O)[C@H](CCN)NC(=O)[C@@H](NC(=O)[C@H](CN)NC(=O)[C@@H](NC(=O)[C@H](CCN)NC(=O)c2ncc(Cl)cc2Cl)[C@@H](C)O)CCNC(=O)[C@H]([C@@H](C)O)NC(=O)[C@H](CCN)NC(=O)[C@H](CCN)NC(=O)[C@H](C(C)C)NC1=O [Compound 13] (X1-[Dab]T[Dap][Dab][Dab][dL]V[Dab][Dab]T; lactam 4-C) has a Minimum inhibitory concentration [1] of 1 µg/mL (≈ 0.851 µM), a Minimum inhibitory concentration [2] of 2 µg/mL (≈ 1.7 µM) and a Minimum inhibitory concentration [3] of under 0.125 µg/mL. The Minimum inhibitory concentration [4] was under 0.125 µg/mL, the Minimum inhibitory concentration [5] was under 0.125 µg/mL and the Minimum inhibitory concentration [6] was 0.25 µg/mL (≈ 0.213 µM). It also gave a Minimum inhibitory concentration [7] of 0.25 µg/mL (≈ 0.213 µM), a Minimum inhibitory concentration [8] of 0.25 µg/mL (≈ 0.213 µM) and a Minimum inhibitory concentration [9] of 0.5 µg/mL (≈ 0.425 µM). For the same compound, the Minimum inhibitory concentration [10] was 0.5 µg/mL (≈ 0.425 µM), the Minimum inhibitory concentration [11] was 0.5 µg/mL (≈ 0.425 µM) and the Minimum inhibitory concentration [12] was 1 µg/mL (≈ 0.851 µM). It also gave a Minimum inhibitory concentration [13] of 0.5 µg/mL (≈ 0.425 µM).
